Laboratory results as given in US9175003B2, “Substituted azoanthracene derivatives and intermediates for preparation thereof” (TransTech Pharma, LLC, priority 2009, dated 2015).

What follows are compounds tested against human GLP-1 receptor (Homo sapiens (Human), UniProt P43220). Settings: read-out: Mean EC50; cAMP, HTRF detection, 30 min at 37° C., HEK-293 cells expressing cloned human GLP-1 receptor.
Sequence of human GLP-1 receptor (P43220 24-463): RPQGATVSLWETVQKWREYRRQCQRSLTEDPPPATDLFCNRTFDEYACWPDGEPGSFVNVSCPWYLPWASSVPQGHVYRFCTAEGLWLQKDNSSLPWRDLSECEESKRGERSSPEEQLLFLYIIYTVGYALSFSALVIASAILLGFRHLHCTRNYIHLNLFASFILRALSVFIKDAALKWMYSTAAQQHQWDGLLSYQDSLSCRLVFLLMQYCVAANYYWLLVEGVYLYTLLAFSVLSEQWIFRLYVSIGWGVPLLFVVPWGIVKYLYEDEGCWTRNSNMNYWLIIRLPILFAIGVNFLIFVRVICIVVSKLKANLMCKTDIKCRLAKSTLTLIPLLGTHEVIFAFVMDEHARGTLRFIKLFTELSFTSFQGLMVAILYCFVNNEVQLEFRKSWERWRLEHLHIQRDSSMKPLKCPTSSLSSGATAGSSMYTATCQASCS

SMILES | EC50
Cc1nccc(-c2ccc(C[C@H](NC(=O)[C@@H]3Cc4cc5c(cc4CN3C(=O)NC3(C)CCC3)O[C@@H](c3ccc(OCc4ccc(Cl)c(Cl)c4)cc3)CO5)C(=O)O)cc2)c1C [Example 320, (S)-2-{[(3S,8S)-3-[4-(3,4-Dichloro-benzyloxy)-phenyl]-7-(1-methyl-cyclobutylcarbamoyl)-2,3,6,7,8,9-hexahydro-[1,4]dioxino[2,3-g]isoquinoline-8-carbonyl]-amino}-3-[4-(2,3-dimethyl-pyridin-4-yl)-phenyl]-propionic acid] | 45 nM
Cc1nccc(-c2ccc(C[C@H](NC(=O)[C@@H]3Cc4cc5c(cc4CN3C(=O)c3ccn(C)n3)O[C@@H](c3ccc(OCc4ccc(Cl)c(Cl)c4)cc3)CO5)C(=O)O)cc2)c1C [Example 324, (S)-2-{[(3S,8S)-3-[4-(3,4-Dichloro-benzyloxy)-phenyl]-7-(1-methyl-1H-pyrazole-3-carbonyl)-2,3,6,7,8,9-hexahydro-[1,4]dioxino[2,3-g]isoquinoline-8-carbonyl]-amino}-3-[4-(2,3-dimethyl-pyridin-4-yl)-phenyl]-propionic acid] | 126 nM
Cc1ccc(C(=O)N2Cc3cc4c(cc3C[C@H]2C(=O)N[C@@H](Cc2ccc(-c3ccnc(C)c3C)cc2)C(=O)O)OC[C@H](c2ccc(OCc3ccc(Cl)c(Cl)c3)cc2)O4)s1 [Example 329, (S)-2-{[(3S,8S)-3-[4-(3,4-dichloro-benzyloxy)-phenyl]-7-(5-methyl-thiophene-2-carbonyl)-2,3,6,7,8,9-hexahydro-[1,4]dioxino[2,3-g]isoquinoline-8-carbonyl]-amino}-3-[4-(2,3-dimethyl-pyridin-4-yl)-phenyl]-propionic acid] | 81 nM
Cc1nccc(-c2ccc(C[C@H](NC(=O)[C@@H]3Cc4cc5c(cc4CN3C(=O)c3nc[nH]n3)O[C@@H](c3ccc(OCc4ccc(Cl)c(Cl)c4)cc3)CO5)C(=O)O)cc2)c1C [Example 332, (S)-2-{[(3S,8S)-3-[4-(3,4-Dichloro-benzyloxy)-phenyl]-7-(1H-[1,2,4]triazole-3-carbonyl)-2,3,6,7,8,9-hexahydro-[1,4]dioxino[2,3-g]isoquinoline-8-carbonyl]-amino}-3-[4-(2,3-dimethyl-pyridin-4-yl)-phenyl]-propionic acid] | 66 nM
Cc1nccc(-c2ccc(C[C@H](NC(=O)[C@@H]3Cc4cc5c(cc4CN3C(=O)C3CNC(=O)N3)O[C@@H](c3ccc(OCc4ccc(Cl)c(Cl)c4)cc3)CO5)C(=O)O)cc2)c1C (stereo partly drawn) [Example 333, (S)-2-{[(3S,8S)-3-[4-(3,4-Dichloro-benzyloxy)-phenyl]-7-(2-oxo-imidazolidine-4-carbonyl)-2,3,6,7,8,9-hexahydro-[1,4]dioxino[2,3-g]isoquinoline-8-carbonyl]-amino}-3-[4-(2,3-dimethyl-pyridin-4-yl)-phenyl]-propionic acid] | 195 nM
Cc1nccc(Oc2ccc(C[C@H](NC(=O)[C@@H]3Cc4cc5c(cc4CN3C(=O)N[C@@H](C)c3ccccc3)O[C@@H](c3ccc(OCc4ccc(Cl)c(Cl)c4)cc3)CO5)C(=O)O)cc2)c1C [Example 335, (S)-2-{[(3S,8S)-3-[4-(3,4-Dichloro-benzyloxy)-phenyl]-7-((S)-1-phenyl-ethylcarbamoyl)-2,3,6,7,8,9-hexahydro-[1,4]dioxino[2,3-g]isoquinoline-8-carbonyl]-amino}-3-[4-(2,3-dimethyl-pyridin-4-yloxy)-phenyl]-propionic acid] | 115 nM
Cc1nccc(Oc2ccc(C[C@H](NC(=O)[C@@H]3Cc4cc5c(cc4CN3C(=O)N[C@H](C)c3ccc(F)cc3)O[C@@H](c3ccc(OCc4ccc(Cl)c(Cl)c4)cc3)CO5)C(=O)O)cc2)c1C [Example 337, (S)-2-({(3S,8S)-3-[4-(3,4-Dichloro-benzyloxy)-phenyl]-7-[(R)-1-(4-fluoro-phenyl)-ethylcarbamoyl]-2,3,6,7,8,9-hexahydro-[1,4]dioxino[2,3-g]isoquinoline-8-carbonyl}-amino)-3-[4-(2,3-dimethyl-pyridin-4-yloxy)-phenyl]-propionic acid] | 145 nM
Cc1nccc(Oc2ccc(C[C@H](NC(=O)[C@@H]3Cc4cc5c(cc4CN3C(=O)NC(C)C)O[C@@H](c3ccc(OCc4ccc(Cl)c(Cl)c4)cc3)CO5)C(=O)O)cc2)c1C [Example 342, (S)-2-({(3S,8S)-3-[4-(3,4-Dichloro-benzyloxy)-phenyl]-7-isopropylcarbamoyl-2,3,6,7,8,9-hexahydro-[1,4]dioxino[2,3-g]isoquinoline-8-carbonyl}-amino)-3-[4-(2,3-dimethyl-pyridin-4-yloxy)-phenyl]-propionic acid] | 204 nM
Cc1nccc(Oc2ccc(C[C@H](NC(=O)[C@@H]3Cc4cc5c(cc4CN3C(=O)NC(C)(C)C)O[C@@H](c3ccc(OCc4ccc(Cl)c(Cl)c4)cc3)CO5)C(=O)O)cc2)c1C [Example 343, (S)-2-({(3S,8S)-7-tert-Butylcarbamoyl-3-[4-(3,4-dichloro-benzyloxy)-phenyl]-2,3,6,7,8,9-hexahydro-[1,4]dioxino[2,3-g]isoquinoline-8-carbonyl}-amino)-3-[4-(2,3-dimethyl-pyridin-4-yloxy)-phenyl]-propionic acid] | 124 nM
Cc1nccc(Oc2ccc(C[C@H](NC(=O)[C@@H]3Cc4cc5c(cc4CN3C(=O)NC3CCCCC3)O[C@@H](c3ccc(OCc4ccc(Cl)c(Cl)c4)cc3)CO5)C(=O)O)cc2)c1C [Example 344, (S)-2-({(3S,8S)-7-Cyclohexylcarbamoyl-3-[4-(3,4-dichloro-benzyloxy)-phenyl]-2,3,6,7,8,9-hexahydro-[1,4]dioxino[2,3-g]isoquinoline-8-carbonyl}-amino)-3-[4-(2,3-dimethyl-pyridin-4-yloxy)-phenyl]-propionic acid] | 271 nM
Cc1nccc(Oc2ccc(C[C@H](NC(=O)[C@@H]3Cc4cc5c(cc4CN3C(=O)NC(C)(C)c3ccccc3)O[C@@H](c3ccc(OCc4ccc(Cl)c(Cl)c4)cc3)CO5)C(=O)O)cc2)c1C [Example 348, (S)-2-{[(3S,8S)-3-[4-(3,4-Dichloro-benzyloxy)-phenyl]-7-(1-methyl-1-phenyl-ethylcarbamoyl)-2,3,6,7,8,9-hexahydro-[1,4]dioxino[2,3-g]isoquinoline-8-carbonyl]-amino}-3-[4-(2,3-dimethyl-pyridin-4-yloxy)-phenyl]-propionic acid] | 262 nM
Cc1nccc(Oc2ccc(C[C@H](NC(=O)[C@@H]3Cc4cc5c(cc4CN3C(=O)NC3(C)CCC3)O[C@@H](c3ccc(OCc4ccc(Cl)c(Cl)c4)cc3)CO5)C(=O)O)cc2)c1C [Example 351, (S)-2-{[(3S,8S)-3-[4-(3,4-Dichloro-benzyloxy)-phenyl]-7-(1-methyl-cyclobutylcarbamoyl)-2,3,6,7,8,9-hexahydro-[1,4]dioxino[2,3-g]isoquinoline-8-carbonyl]-amino}-3-[4-(2,3-dimethyl-pyridin-4-yloxy)-phenyl]-propionic acid] | 109 nM

Continued, values first:

EC50 | SMILES
183 nM | CCC(C)(C)NC(=O)N1Cc2cc3c(cc2C[C@H]1C(=O)N[C@@H](Cc1ccc(-c2ccnc(C)c2C)cc1)C(=O)O)OC[C@H](c1ccc(OCc2ccc(Cl)c(Cl)c2)cc1)O3 [Example 319, (S)-2-{[(3S,8S)-3-[4-(3,4-Dichloro-benzyloxy)-phenyl]-7-(1,1-dimethyl-propylcarbamoyl)-2,3,6,7,8,9-hexahydro-[1,4]dioxino[2,3-g]isoquinoline-8-carbonyl]-amino}-3-[4-(2,3-dimethyl-pyridin-4-yl)-phenyl]-propionic acid]
178 nM | Cc1nccc(-c2ccc(C[C@H](NC(=O)[C@@H]3Cc4cc5c(cc4CN3C(=O)NC(C)(C)c3ccccc3)O[C@@H](c3ccc(OCc4ccc(Cl)c(Cl)c4)cc3)CO5)C(=O)O)cc2)c1C [Example 323, (S)-2-{[(3S,8S)-3-[4-(3,4-Dichloro-benzyloxy)-phenyl]-7-(1-methyl-1-phenyl-ethylcarbamoyl)-2,3,6,7,8,9-hexahydro-[1,4]dioxino[2,3-g]isoquinoline-8-carbonyl]-amino}-3-[4-(2,3-dimethyl-pyridin-4-yl)-phenyl]-propionic acid]
377 nM | Cc1ccccc1NC(=O)N1Cc2cc3c(cc2C[C@H]1C(=O)N[C@@H](Cc1ccc(Oc2ccnc(C)c2C)cc1)C(=O)O)OC[C@H](c1ccc(OCc2ccc(Cl)c(Cl)c2)cc1)O3 [Example 338, (S)-2-({(3S,8S)-3-[4-(3,4-Dichloro-benzyloxy)-phenyl]-7-o-tolylcarbamoyl-2,3,6,7,8,9-hexahydro-[1,4]dioxino[2,3-g]isoquinoline-8-carbonyl}-amino)-3-[4-(2,3-dimethyl-pyridin-4-yloxy)-phenyl]-propionic acid]
255 nM | Cc1cccc(NC(=O)N2Cc3cc4c(cc3C[C@H]2C(=O)N[C@@H](Cc2ccc(Oc3ccnc(C)c3C)cc2)C(=O)O)OC[C@H](c2ccc(OCc3ccc(Cl)c(Cl)c3)cc2)O4)c1 [Example 345, (S)-2-({(3S,8S)-3-[4-(3,4-Dichloro-benzyloxy)-phenyl]-7-m-tolylcarbamoyl-2,3,6,7,8,9-hexahydro-[1,4]dioxino[2,3-g]isoquinoline-8-carbonyl}-amino)-3-[4-(2,3-dimethyl-pyridin-4-yloxy)-phenyl]-propionic acid]
315 nM | Cc1nccc(Oc2ccc(C[C@H](NC(=O)[C@@H]3Cc4cc5c(cc4CN3C(=O)NC3CCC3)O[C@@H](c3ccc(OCc4ccc(Cl)c(Cl)c4)cc3)CO5)C(=O)O)cc2)c1C [Example 347, (S)-2-({(3S,8S)-7-Cyclobutylcarbamoyl-3-[4-(3,4-dichloro-benzyloxy)-phenyl]-2,3,6,7,8,9-hexahydro-[1,4]dioxino[2,3-g]isoquinoline-8-carbonyl}-amino)-3-[4-(2,3-dimethyl-pyridin-4-yloxy)-phenyl]-propionic acid]
212 nM | CCC(C)(C)NC(=O)N1Cc2cc3c(cc2C[C@H]1C(=O)N[C@@H](Cc1ccc(Oc2ccnc(C)c2C)cc1)C(=O)O)OC[C@H](c1ccc(OCc2ccc(Cl)c(Cl)c2)cc1)O3 [Example 350, (S)-2-{[(3S,8S)-3-[4-(3,4-Dichloro-benzyloxy)-phenyl]-7-(1,1-dimethyl-propylcarbamoyl)-2,3,6,7,8,9-hexahydro-[1,4]dioxino[2,3-g]isoquinoline-8-carbonyl]-amino}-3-[4-(2,3-dimethyl-pyridin-4-yloxy)-phenyl]-propionic acid]
